Data as given in ChEMBL document CHEMBL5055619, “Tetrahydrofuran-Based Transient Receptor Potential Ankyrin 1 (TRPA1) Antagonists: Ligand-Based Discovery, Activity in a Rodent Asthma Model, and Mechanism-of-Action via Cryogenic Electron Microscopy” (J Med Chem, 2021).
Values after ≈ are worked out from the molar mass of the structure shown. Active and inactive are the calls of the source. The rule behind the calls is not given here.

Tests used:
[1] = Unbound Volume of distribution at steady state in rat at 1 mg/kg; type: ADME, organism-based; conditions: in vivo
[2] = Protein binding in human plasma; type: ADME, cell-free; conditions: read-out: PPB (converted)
[3] = Apparent permeability across apical to basolateral side in MDCK cells; type: ADME, cell-based, Canis lupus familiaris; conditions: dog, read-out: permeability
Rattus norvegicus = organism: Rattus norvegicus; test: Antinociceptive activity against AITC-induced rat pain model assessed as nocifensive behaviour by measuring unbound concentration; type: functional, organism-based
[4] = Lipophilicity, logD of compound; type: physicochemical; conditions: octanol/water
[5] = Half life in rat at 1 mg/kg; type: ADME, organism-based; conditions: in vivo
[6] = Metabolic stability in human liver microsomes assessed as clearance by LC/MS-MS analysis; type: ADME, Microsome
[7] = molecular target: T1, Short transient receptor potential channel 6 (Homo sapiens) (UniProt Q9Y210); test: Inhibition of human TRPC6 expressed in HEK293F cells assessed as inhibition of carbachol-induced calcium response up to 20 uM; type: cell-based
T1 sequence (whole entry): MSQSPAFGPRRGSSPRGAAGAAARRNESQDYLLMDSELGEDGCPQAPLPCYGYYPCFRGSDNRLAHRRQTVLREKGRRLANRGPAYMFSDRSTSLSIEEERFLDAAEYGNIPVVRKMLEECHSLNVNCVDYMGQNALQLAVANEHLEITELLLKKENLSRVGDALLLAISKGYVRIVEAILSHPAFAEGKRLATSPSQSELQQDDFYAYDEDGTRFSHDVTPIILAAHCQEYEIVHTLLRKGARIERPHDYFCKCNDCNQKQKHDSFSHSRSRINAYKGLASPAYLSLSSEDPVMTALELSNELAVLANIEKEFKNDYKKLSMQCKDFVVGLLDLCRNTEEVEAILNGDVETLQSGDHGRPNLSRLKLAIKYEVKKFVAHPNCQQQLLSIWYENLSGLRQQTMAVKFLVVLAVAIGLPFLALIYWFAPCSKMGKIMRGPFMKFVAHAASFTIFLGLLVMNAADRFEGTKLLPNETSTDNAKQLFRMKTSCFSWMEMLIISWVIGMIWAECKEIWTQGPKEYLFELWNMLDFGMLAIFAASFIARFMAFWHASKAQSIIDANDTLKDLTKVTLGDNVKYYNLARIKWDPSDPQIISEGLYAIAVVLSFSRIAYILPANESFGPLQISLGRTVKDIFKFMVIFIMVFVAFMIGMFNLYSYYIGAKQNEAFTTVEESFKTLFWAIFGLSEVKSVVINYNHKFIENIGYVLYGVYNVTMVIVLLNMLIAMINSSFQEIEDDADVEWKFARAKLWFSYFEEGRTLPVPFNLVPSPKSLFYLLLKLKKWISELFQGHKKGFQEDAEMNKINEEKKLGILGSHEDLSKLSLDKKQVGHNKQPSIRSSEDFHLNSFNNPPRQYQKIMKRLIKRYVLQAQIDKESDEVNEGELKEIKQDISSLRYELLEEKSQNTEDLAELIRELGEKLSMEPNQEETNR

[8] = molecular target: Transient receptor potential cation channel subfamily A member 1 (Rattus norvegicus) (UniProt Q6RI86); test: In vivo antagonist activity at TRPA1 in AITC-induced rat pain model assessed as nocifensive behaviour at 93.41 ratio of free plasma concentration to IC50 for rat […]; type: functional, organism-based; conditions: concentration not given here
Transient receptor potential cation channel subfamily A member 1 (Rattus norvegicus), sequence (Q6RI86 whole entry): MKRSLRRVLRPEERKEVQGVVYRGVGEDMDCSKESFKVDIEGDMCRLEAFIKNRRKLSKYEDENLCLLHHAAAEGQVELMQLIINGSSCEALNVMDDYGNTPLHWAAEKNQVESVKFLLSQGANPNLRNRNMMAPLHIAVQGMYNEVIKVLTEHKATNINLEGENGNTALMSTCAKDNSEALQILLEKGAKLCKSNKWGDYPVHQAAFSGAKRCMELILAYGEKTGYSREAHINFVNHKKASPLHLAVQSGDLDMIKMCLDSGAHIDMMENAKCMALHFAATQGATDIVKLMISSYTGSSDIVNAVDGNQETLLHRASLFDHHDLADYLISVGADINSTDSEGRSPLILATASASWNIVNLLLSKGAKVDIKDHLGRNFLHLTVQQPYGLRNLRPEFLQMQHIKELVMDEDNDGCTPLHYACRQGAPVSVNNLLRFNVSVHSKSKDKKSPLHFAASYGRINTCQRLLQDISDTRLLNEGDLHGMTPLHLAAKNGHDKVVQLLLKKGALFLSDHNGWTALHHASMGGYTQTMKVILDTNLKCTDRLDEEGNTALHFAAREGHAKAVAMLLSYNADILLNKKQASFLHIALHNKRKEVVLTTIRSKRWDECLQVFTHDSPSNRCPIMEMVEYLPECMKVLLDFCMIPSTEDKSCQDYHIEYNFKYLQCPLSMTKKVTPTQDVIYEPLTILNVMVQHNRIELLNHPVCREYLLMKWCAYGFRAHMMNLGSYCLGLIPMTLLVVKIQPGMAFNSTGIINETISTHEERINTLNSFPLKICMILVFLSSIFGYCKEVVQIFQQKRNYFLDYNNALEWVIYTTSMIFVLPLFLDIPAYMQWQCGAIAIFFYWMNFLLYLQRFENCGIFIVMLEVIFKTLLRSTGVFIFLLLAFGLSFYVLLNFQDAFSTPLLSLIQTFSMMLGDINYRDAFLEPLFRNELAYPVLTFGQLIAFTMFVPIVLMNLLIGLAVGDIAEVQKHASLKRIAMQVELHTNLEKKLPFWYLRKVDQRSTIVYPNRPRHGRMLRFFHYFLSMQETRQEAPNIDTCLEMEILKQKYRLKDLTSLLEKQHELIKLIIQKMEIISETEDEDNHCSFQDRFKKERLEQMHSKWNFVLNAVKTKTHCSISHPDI

[9] = Clearance in rat at 1 mg/kg; type: ADME, organism-based; conditions: in vivo
[10] = molecular target: Transient receptor potential cation channel subfamily A member 1 (Rattus norvegicus) (UniProt Q6RI86); test: In vivo antagonist activity at TRPA1 in AITC-induced rat pain model assessed as nocifensive behaviour at 7.95 ratio of free plasma concentration to IC50 for rat […]; type: functional, organism-based; conditions: concentration not given here
[11] = Volume of distribution at steady stare in rat at 1 mg/kg; type: ADME, organism-based; conditions: in vivo, read-out: Vdss
[12] = molecular target: Transient receptor potential cation channel subfamily A member 1 (Rattus norvegicus) (UniProt Q6RI86); test: In vivo antagonist activity at TRPA1 in AITC-induced rat pain model assessed as nocifensive behaviour at 24.47 ratio of free plasma concentration to IC50 for rat […]; type: functional, organism-based; conditions: concentration not given here
[13] = molecular target: Transient receptor potential cation channel subfamily A member 1 (Rattus norvegicus) (UniProt Q6RI86); test: In vivo antagonist activity at TRPA1 in AITC-induced rat pain model assessed as nocifensive behaviour at 2.18 ratio of free plasma concentration to IC50 for rat […]; type: functional, organism-based; conditions: concentration not given here
Cytochrome P450 3A4 = Cytochrome P450 3A4 (Homo sapiens, UniProt P08684); test: Inhibition of CYP3A4 (unknown origin); type: ADME
Cytochrome P450 3A4, sequence (P08684 whole entry): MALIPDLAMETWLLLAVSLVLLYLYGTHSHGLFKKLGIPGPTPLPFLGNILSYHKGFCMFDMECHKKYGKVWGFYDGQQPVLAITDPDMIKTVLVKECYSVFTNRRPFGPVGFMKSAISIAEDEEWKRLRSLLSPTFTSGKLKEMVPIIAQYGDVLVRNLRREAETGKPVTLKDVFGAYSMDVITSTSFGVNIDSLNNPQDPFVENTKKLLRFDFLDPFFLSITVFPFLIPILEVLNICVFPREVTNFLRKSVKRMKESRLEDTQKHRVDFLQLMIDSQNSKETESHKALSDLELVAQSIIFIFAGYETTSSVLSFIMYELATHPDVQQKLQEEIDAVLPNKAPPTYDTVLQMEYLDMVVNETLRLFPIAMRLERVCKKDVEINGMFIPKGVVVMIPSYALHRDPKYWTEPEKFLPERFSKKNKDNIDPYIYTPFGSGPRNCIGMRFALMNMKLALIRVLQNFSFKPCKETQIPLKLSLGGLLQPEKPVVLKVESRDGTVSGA

[14] = Metabolic stability in rat hepatocytes assessed as clearance; type: ADME, cell-based, Hepatocyte
hERG (KCNH2) = hERG (KCNH2) (Homo sapiens, UniProt Q12809); test: Inhibition of human ERG at 10 uM
hERG (KCNH2), sequence (Q12809 whole entry): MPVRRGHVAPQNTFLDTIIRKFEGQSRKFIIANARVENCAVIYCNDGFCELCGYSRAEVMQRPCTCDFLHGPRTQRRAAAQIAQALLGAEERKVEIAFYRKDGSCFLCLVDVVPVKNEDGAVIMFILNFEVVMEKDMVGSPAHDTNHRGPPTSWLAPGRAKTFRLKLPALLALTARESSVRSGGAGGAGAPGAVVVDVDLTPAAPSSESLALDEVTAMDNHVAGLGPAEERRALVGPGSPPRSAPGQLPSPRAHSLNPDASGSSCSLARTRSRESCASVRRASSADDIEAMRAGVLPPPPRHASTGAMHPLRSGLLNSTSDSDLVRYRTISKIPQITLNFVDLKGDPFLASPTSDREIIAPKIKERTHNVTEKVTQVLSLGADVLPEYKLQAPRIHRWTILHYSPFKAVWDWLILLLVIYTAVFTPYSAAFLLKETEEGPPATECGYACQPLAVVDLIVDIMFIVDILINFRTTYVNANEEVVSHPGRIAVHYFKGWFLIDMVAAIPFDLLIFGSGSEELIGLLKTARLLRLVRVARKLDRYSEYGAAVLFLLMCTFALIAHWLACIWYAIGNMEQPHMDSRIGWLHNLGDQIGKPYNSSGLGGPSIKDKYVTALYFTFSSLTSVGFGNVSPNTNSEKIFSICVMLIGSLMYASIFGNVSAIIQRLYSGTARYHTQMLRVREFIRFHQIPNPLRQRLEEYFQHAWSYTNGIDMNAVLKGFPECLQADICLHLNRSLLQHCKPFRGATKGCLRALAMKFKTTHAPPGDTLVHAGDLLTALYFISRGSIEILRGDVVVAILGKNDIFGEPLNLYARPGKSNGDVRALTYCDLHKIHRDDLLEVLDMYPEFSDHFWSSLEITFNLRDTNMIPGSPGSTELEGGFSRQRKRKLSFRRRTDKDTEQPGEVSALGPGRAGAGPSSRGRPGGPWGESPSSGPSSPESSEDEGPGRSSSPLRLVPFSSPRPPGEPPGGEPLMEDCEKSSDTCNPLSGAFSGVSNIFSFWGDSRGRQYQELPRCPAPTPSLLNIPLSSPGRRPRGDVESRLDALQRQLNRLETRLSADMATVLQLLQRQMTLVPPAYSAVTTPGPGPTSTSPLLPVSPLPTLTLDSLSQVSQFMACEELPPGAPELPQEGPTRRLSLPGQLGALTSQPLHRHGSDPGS

[15] = Protein binding in rat plasma; type: ADME, cell-free; conditions: read-out: PPB (converted)
[16] = molecular target: Transient receptor potential cation channel subfamily M member 8 (Homo sapiens) (UniProt Q7Z2W7); test: Inhibition of human TRPM8 expressed in HEK293F cells assessed as inhibition of […]-induced calcium response up to 20 uM; type: cell-based
Transient receptor potential cation channel subfamily M member 8 (Homo sapiens), sequence (Q7Z2W7 whole entry, looked up): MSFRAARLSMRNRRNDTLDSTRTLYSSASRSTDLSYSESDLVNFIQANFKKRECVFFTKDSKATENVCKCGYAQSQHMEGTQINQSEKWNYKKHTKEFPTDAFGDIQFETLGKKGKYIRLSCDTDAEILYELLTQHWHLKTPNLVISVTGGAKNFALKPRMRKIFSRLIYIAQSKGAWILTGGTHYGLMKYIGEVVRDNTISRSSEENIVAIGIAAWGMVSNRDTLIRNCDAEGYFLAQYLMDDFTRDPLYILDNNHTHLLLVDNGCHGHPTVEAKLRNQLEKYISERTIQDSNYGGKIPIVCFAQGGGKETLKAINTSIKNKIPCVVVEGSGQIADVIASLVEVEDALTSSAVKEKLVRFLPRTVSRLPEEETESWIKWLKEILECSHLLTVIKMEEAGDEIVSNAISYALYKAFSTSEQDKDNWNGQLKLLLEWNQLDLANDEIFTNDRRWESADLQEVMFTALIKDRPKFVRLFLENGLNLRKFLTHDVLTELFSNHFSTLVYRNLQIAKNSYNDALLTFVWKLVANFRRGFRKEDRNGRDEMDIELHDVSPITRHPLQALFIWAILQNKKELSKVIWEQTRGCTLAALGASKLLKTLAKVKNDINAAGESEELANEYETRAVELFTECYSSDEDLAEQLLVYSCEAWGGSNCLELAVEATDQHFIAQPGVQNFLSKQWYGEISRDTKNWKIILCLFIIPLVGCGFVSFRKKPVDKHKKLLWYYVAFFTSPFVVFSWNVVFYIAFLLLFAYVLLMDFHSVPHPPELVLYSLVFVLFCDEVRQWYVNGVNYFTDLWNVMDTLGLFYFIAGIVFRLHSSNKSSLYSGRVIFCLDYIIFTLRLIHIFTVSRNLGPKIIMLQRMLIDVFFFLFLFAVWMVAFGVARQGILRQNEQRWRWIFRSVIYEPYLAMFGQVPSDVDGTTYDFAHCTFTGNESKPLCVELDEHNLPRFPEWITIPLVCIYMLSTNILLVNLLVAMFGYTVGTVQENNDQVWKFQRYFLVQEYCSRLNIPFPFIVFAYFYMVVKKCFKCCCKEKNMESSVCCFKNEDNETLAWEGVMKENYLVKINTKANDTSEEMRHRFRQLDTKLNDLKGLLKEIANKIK

[17] = Kinetic solubility of the compound; type: physicochemical; conditions: read-out: Kinetic_solubility
Nav1.5 = Nav1.5 (Homo sapiens, UniProt Q14524); test: Inhibition of Nav1.5 (unknown origin) at 10 uM
[18] = Metabolic stability in rat liver microsomes assessed as clearance by LC/MS-MS analysis; type: ADME, Microsome
[19] = Antagonist activity at human TRPA1 expressed in CHO cells assessed as cinnamaldehyde-induced calcium flux measured after 90 mins by FLIPR assay; type: cell-based; conditions: 1.5 h
[20] = Inhibition of guinea pig TRPA1; set-up: species or system Cavia porcellus
Cytochrome P450 2D6 = Cytochrome P450 2D6 (Homo sapiens, UniProt P10635); test: Inhibition of CYP2D6 (unknown origin); type: ADME
Cytochrome P450 2D6, sequence (P10635 whole entry): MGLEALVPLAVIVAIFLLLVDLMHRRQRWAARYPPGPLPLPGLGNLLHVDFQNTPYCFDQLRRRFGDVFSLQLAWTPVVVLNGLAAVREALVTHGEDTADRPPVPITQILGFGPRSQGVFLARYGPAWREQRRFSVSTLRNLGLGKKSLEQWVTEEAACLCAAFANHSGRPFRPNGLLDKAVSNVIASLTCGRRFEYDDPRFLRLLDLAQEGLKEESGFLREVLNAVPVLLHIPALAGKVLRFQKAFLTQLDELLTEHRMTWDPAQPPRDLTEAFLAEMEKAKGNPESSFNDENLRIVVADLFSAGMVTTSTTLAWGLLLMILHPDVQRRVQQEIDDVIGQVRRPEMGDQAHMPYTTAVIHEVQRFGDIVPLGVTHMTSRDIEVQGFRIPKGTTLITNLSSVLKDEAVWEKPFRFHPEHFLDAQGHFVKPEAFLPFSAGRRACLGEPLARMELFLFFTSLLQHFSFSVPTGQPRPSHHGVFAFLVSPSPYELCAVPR

[21] = Antagonist activity at rat TRPA1 expressed in CHO cells assessed as cinnamaldehyde-induced calcium flux measured after 90 mins by FLIPR assay; type: cell-based; conditions: 1.5 h
Cav1.2 = Cav1.2 (Homo sapiens, UniProt Q13936); test: Inhibition of Cav1.2 (unknown origin) at 10 uM
Cavia porcellus = test: Antiinflammatory activity against ovalbumin-induced po dosed Hartley guinea pig asthma model assessed as reduction in BAL fluid infiltrate in the airway treated 2 hrs before and 8 hrs after 28 days of ovalbumin challenge measured after 24 hrs; type: functional, organism-based
[22] = Oral bioavailability in rat at 1 mg/kg; type: ADME, organism-based; conditions: in vivo

Vduss [1]: 8.54 L/kg
fraction unbound [2]: 0.171
Papp A→B [3]: 16 ×10⁻⁶ cm/s
EC50 (Rattus norvegicus): 53 nM
logD [4]: 1.8
half-life [5]: 1.6 h
CLhep predicted [6]: 5 mL/min/kg
inhibition [7]: inactive
inhibition [8]: 100%
clearance [9]: 17 mL/min/kg
inhibition [10]: 53%
Vd [11]: 2.1 L/kg
inhibition [12]: 80%
inhibition [13]: 30%
IC50 (Cytochrome P450 3A4): > 10000 nM
CLhep predicted [14]: 29 mL/min/kg
fraction unbound [15]: 0.246
inhibition [16]: inactive
solubility kinetic [17]: 43 µM (≈ 17.8 µg/mL)
CLhep predicted [18]: 14 mL/min/kg
IC50 [19]: 0.9 nM
IC50 [20]: 7.1 nM
IC50 (Cytochrome P450 2D6): > 10000 nM
IC50 [21]: 7.4 nM
bioavailability [22]: 90%
SMILES: Cn1cnc2ncn(Cc3nc([C@@H]4CO[C@@H](c5ccc(Cl)cc5)C4)no3)c(=O)c21
inhibition at 10 µM (hERG (KCNH2)): < 15%
inhibition at 10 µM (Nav1.5): < 15%
inhibition at 10 µM (Cav1.2): < 15%
Activity (Cavia porcellus): Dose-dependent effect
